How the values were obtained:
[1] = test system: ORN with 27 bases in mixture with an ODN with 27 bases; assay: Selective functionalisation, capture, cleaving and elution of an ORN from an ORN/ODN mixture (HPLC 260 nm); settings: injection 2, after two functionalisation/precipitation steps, 65° C. 1 h
Description: We have a 27-mer ODN (Eurogentec ref. 21438-DNA batch #2177673, Sequence: 5′-AAC-CGC-AGT-GAC-ACC-CTC-ATC-ATT-ACA-3′) in 650 μM solution in water, and a 27-mer ORN (Eurogentec ref. 21437-RNA batch #2177672, Sequence: 5′-AAC-CGC-AGU-GAC-ACC-CUC-AUC-AUU-ACA-3′) in 952 μM solution in water. 15.4 μL of ODN and 17.5 μL of ORN are mixed and topped up with 67.1 μL of ultrapure water.
80 μL of the mixture (8 nmoles) are evaporated until dry and taken up in: 10 μL of water, 5 μL of isatoic anhydride Biot PEG4(SS)IA Me (24); […]), in 480 mM DMF solution, and 5 μL of Triethyl ammonium acetate buffer in 1 M solution in water. The medium is placed in the oven at 65° C. for one hour.
The medium is then subjected to a triple precipitation with lithium perchlorate LiClO4 and with acetone, in order to free it from the residual BiotPEG4 (SS) IA Me: 18 μL of LiClO4 in 3M solution in water and 262 μL of water are added to the medium. After vortex stirring, 900 μL of acetone are added, then the medium is agitated once again and centrifuged (5 minutes at 13,000 rpm at ambient temperature). The supernatant is then removed carefully and the same method is repeated twice more with 18 μL of LiClO4 and 282 μL of water. Finally, the medium is washed with 900 μL of acetone before stirring and centrifuging. The greater part of the supernatant is removed carefully before drying in the rotary evaporator. […]

SMILES | initial ORN functionalised [1] [%] | solubility (Solubility in water) [mM]
Cn1c(=O)oc(=O)c2cc(NC(=O)CCSSCCNC(=O)CCOCCOCCOCCOCCNC(=O)CCCCC3SCC4NC(=O)NC43)ccc21 (centres unmarked) [5Biot PEG4 SS IA Me 24] | 95 | –
CCN1/C(=C\C=C\C2=[N+](CCCCCC(=O)Nc3ccc4c(c3)c(=O)oc(=O)n4C)c3ccc(S(=O)(=O)[O-])cc3C2(C)C)C(C)(C)c2cc(S(=O)(=O)[O-])ccc21.[K+] [Cy3 IA Me 13, 1-methyl 5-Cy3-isatoic anhydride] | – | > 100

— patent US20130253179A1, “Functionalization Processes and Reactants Used in Such Processes Using an Isatoic Anhydride or a Derivative Thereof, Biological Molecules Thus Treated and Kits” (priority 2010, published 2013)
